The text below walks through data of US20080102451A1, “Companion diagnostic assays for endothelin receptor antagonists” (Abbott Laboratories, priority 2006, published 2008).

The test system of experiment [1] is Mouse MC3T3 pre-osteoblastic cells. Description: Microarray analysis of gene expression in ET-treated mouse osteoblasts. The experiment is classed as cell-based. The settings on record: for # Genes Blocked by ABT-627 (of genes down-regulated by ET) / # Genes Blocked by ABT-627 (of genes induced by ET): drug added 1 hour prior to ET. The text has this:
(§1) Mouse MC3T3 pre-osteoblastic cells (subclone 4) were purchased from ATCC (Manassis, Va.) and propagated in αMEM media without ascorbic acid (Invitrogen, Carlsbad, Calif.) supplemented with 10% FBS (Invitrogen). Human Mesenchymal Stem Cells (MSCs) were purchased from Cambrex (Walkersville, Md.) and propagated according in MSCGM™ media (Cambrex). To initiate differentiation of the MSC into human osteoblasts, the growth media was replaced by osteogenic differentiation medium (OGM, Cambrex).
(§2) Mouse preosteoblastic MC3T3 cells as well as primary human osteoblasts were treated with ET, from Sigma (St. Louis, Mo.), for 2, 4, and 6 hours in the absence or presence of the ETa receptor antagonist ABT-627, from Abbott Laboratories (Abbott Park, Ill.). The drug was added 1 hour prior to the addition of ET.
Total RNA was extracted from the treated cell lines and purified on RNeasy columns (Qiagen, Valencia, Calif.). Labeled cRNA was prepared according to the microarray manufacturer Affymetrix's protocol and hybridized to either mouse 430A 2.0 or human U133A 2.0 arrays (Affymetrix, Santa Clara, Calif.). Gene expression fold changes for each treatment were calculated by combining three biological replicates for each treatment using the Rosetta Resolver's Affymetrix error model software and building a ratio from the resulting values. All genes regulated ≧1.5-fold with a p-value of ≦0.01 were retained for further analysis. Conventional two-dimensional clustering was then performed by using the agglomerative hierarchical clustering algorithm. The Euclidean distance was used as the similarity metric.

The subject of experiment [2] is metastatic hormone-refractory prostate cancer. To be noted: patients with metastatic hormone-refractory prostate cancer; Nelson et al. 2003; cited from earlier work.
Experiment [3] has as its system PAI-1. Description: ELISA for PAI-1 secreted by MC3T3 osteoblast cells. The format is cell-based, mouse. The settings on record: MC3T3 cell line.
Description: as §1, §2
(§3) Mouse MC3T3 osteoblast cells were propagated as set out above, and at times indicated were harvested and spun at 250×g for 10 minutes at room temperature. The clarified supernatants were aliquoted and frozen until analyzed. 200 microliters of each sample was tested in quadruplicate by commercially available ELISA assay kits for PAI-1 (Molecular Innovations, Southfield, Mich.), OPG (Biomedica, San Diego, Calif.) and IL-6 (Ray Biotech, Norcross, Ga.). The ELISA tests were performed according to the manufacturer's instructions. […]
On the technique in general: An ELISA detects its analyte on a solid surface through an enzyme-linked reagent.

For experiment [4], the system named is OPG. Description: ELISA for OPG secreted by MC3T3 osteoblast cells. The format is cell-based, mouse. The settings on record: MC3T3 cell line.
Description: as §1, §2, §3

In experiment [5] the test system is osteoblastic metastases. The settings on record: mice injected with ET-1-secreting breast cancer cell lines; Yin et al. 2003; cited from earlier work.
The test system of experiment [6] is IL-6. The experiment is described as follows: ELISA for IL-6 secreted by MC3T3 osteoblast cells. The experiment is classed as cell-based, mouse. The settings on record: MC3T3 cell line.
Description: as §1, §2, §3

Experiment [7] deals with primary human osteoblasts. The experiment is described as follows: Microarray analysis of gene expression in ET-treated primary human osteoblasts. To be noted: ET-1 treatment. The experiment is classed as cell-based.
Description: as §1, §2
Total RNA was extracted from the treated cell lines and purified on RNeasy columns (Qiagen, Valencia, Calif.). Labeled cRNA was prepared according to the microarray manufacturer Affymetrix's protocol and hybridized to either mouse 430A 2.0 or human U133A 2.0 arrays (Affymetrix, Santa Clara, Calif.). Gene expression fold changes for each treatment were calculated by combining three biological replicates for each treatment using the Rosetta Resolver's Affymetrix error model software and building a ratio from the resulting values. […]

Where [8] appears, read: endothelin in the presence of ABT-627.
Setting [9] is: mouse osteoblasts, time point 4 hr.
The mark [10] stands for this setting: mouse osteoblasts, time point 6 hr.

On to `CCCCN(CCCC)C(=O)CN1C[C@H](c2ccc3c(c2)OCO3)[C@@H](C(=O)O)[C@@H]1c1ccc(OC)cc1` [ABT-627, (2R,3R,4S)-(+)-2-(4-Methoxyphenyl)-4-(1,3-benzodioxol-5-yl)-1-(N,N-di(n-butyl)aminocarbonylmethyl)-pyrrolidine-3-carboxylic acid], for which the “Induction by ET-1 of osteoblastic maturation genes (OPG, COX-2, Dmp1, Tgfbi, CTGF, Klf10)” value in experiment [1] (osteoblastic cells, pre-treatment with ABT-627) was “blocked”. Also, in experiment [1] (osteoblastic cells, with ABT-627), the “Induction by ET of apoptosis suppression genes (Nur77, Flt1, NFATc1)” value is on record as “the induction was blocked”. Also, in experiment [1] (time point 2 hr), the “Genes Blocked by ABT-627 as percent of genes induced by ET” value (shortened to “Genes Blocked by ABT-627 as percent”) is recorded as “(96%)”, the “# Genes Blocked by ABT-627 (of genes down-regulated by ET)” value is given as 403 and the “# Genes Blocked by ABT-627 (of genes induced by ET)” value amounted to 581. Also, in experiment [1] (time point 4 hr), the “Genes Blocked by ABT-627 as percent” value is on record as “(83%)”, the “# Genes Blocked by ABT-627 (of genes down-regulated by ET)” value was 262 and the “# Genes Blocked by ABT-627 (of genes induced by ET)” value is 390. In experiment [1] (time point 6 hr), the “Genes Blocked by ABT-627 as percent” value was “(97%)”, the “# Genes Blocked by ABT-627 (of genes down-regulated by ET)” value was determined as 93 and the “# Genes Blocked by ABT-627 (of genes induced by ET)” value was determined as 189. For the same molecule, in experiment [1] (two-dimensional hierarchical clustering, all three timepoints), the “Effect of pre-treatment on ET gene induction events” value was “abrogated almost all of these gene induction events”. Besides, the “Gene expression changes caused by the antagonist alone” value in experiment [1] (without ET) is reported as “very few gene expression changes”. Further, the “Time to disease progression” value in experiment [2] is listed as “extended time to disease progression”. In addition, the “Endothelin-induced expression of PAI-1 (ELISA)” value in experiment [3] (setting [8]) was “substantial suppression”. In experiment [4] (setting [8]), the “Endothelin-induced expression of OPG (ELISA)” value is listed as “substantial suppression”. In addition, the Metastatic growth result in experiment [5] was “suppressed the metastatic growth”. In experiment [6] (setting [8]), the “Endothelin-induced expression of IL-6 (ELISA)” value is “substantial suppression”.

Regarding `CC[C@H](C)[C@H](NC(=O)[C@H](CC(=O)O)NC(=O)[C@H](CC(C)C)NC(=O)[C@H](Cc1c[nH]cn1)NC(=O)[C@@H]1CSSC[C@H](N)C(=O)N[C@@H](CO)C(=O)N[C@H]2CSSC[C@H](NC(=O)[C@H](CCC(=O)O)NC(=O)[C@H](CCCCN)NC(=O)[C@H](CC(=O)O)NC(=O)[C@H](CCSC)NC(=O)[C@H](CC(C)C)NC(=O)[C@H](CO)NC(=O)[C@H](CO)NC2=O)C(=O)N[C@@H](C(C)C)C(=O)N[C@@H](Cc2ccc(O)cc2)C(=O)N[C@@H](Cc2ccccc2)C(=O)N1)C(=O)N[C@H](C(=O)N[C@@H](Cc1c[nH]c2ccccc12)C(=O)O)[C@@H](C)CC` [ET], the “Expression of genes coding for secreted proteins (PAI-1, uPA, TGFbeta2, IL-6, IL-8)” value in experiment [1] (mouse osteoblasts, ET-1 treatment) was “strongly upregulated”; in experiment [7], “strongly upregulated”. Moreover, the “# Genes Down-regulated by ET” value in experiment [1] (mouse osteoblasts, time point 2 hr) is recorded as 423; in experiment [1] (setting [9]), 295; in experiment [1] (setting [10]), 95. The “# Genes Induced by ET” value came to 608 in experiment [1] (mouse osteoblasts, time point 2 hr, regulated >=1.5-fold, p<=0.01); 472 in experiment [1] (setting [9]); 194 in experiment [1] (setting [10]). For the same molecule, in experiment [1] (osteoblastic cells, ET treatment), the “Expression of apoptosis suppression genes (Nur77, Flt1, NFATc1)” value was “induced”. In addition, the “Expression of PAI-1 (ELISA)” value in experiment [3] (treatment with endothelin) is reported as “strongly induced”. Further, the “Expression of OPG (ELISA)” value in experiment [4] (treatment with endothelin) is listed as “strongly induced”. In experiment [6] (treatment with endothelin), the “Expression of IL-6 (ELISA)” value is given as “strongly induced”.
